Reference: US11485751B2, “Apramycin derivatives” (WAYNE STATE UNIVERSITY, priority 2017, dated 2022)
Values after ≈ are worked out from the molar mass of the structure shown.

Assays:
WT clinical isolates = experiment: MIC broth microdilution, WT; assay type: cell-based; conditions: read-out: MIC WT, clinical isolates, IMM Univ. Zurich; wild type
Description: (§1) Minimal inhibitory concentrations (MIC) have been determined by broth microdilution assays (CLSI. Methods for Dilution Antimicrobial Susceptibility Tests for Bacteria That Grow Aerobically; Approved Standard—Tenth Edition. CLSI document M07-A10. Wayne, Pa.: Clinical and Laboratory Standards Institute; 2015.).
(§2) Minimal inhibitory concentrations (MICs, […]) against clinical isolates from Institute of Medical Microbiology, Univ. Zurich, and the IC50 values for bacterial, human mitochondrial and human cytosolic ribosomes are indicated.
(§3) Minimal inhibitory concentrations (μg/ml) against clinical isolates from Institute of Medical Microbiology, Univ. Zurich, and the IC50 values for bacterial, human mitochondrial and human cytosolic ribosomes are indicated.
(§4) The Minimal inhibitory concentrations (MICs, μg/ml) against clinical isolates from Institute of Medical Microbiology, Univ Zurich, and the IC50 values for bacterial, human mitochondrial and human cytosolic ribosomes are indicated.

[1] = test system: clinical isolates carrying AAC(3)-IV; experiment: MIC broth microdilution, AAC(3)-IV; assay type: cell-based; conditions: read-out: MIC AAC(3)-IV
Description: as §1, §2, §3, §4

isolates carrying apmA = experiment: MIC broth microdilution, apmA; assay type: cell-based; conditions: apmA resistance gene
Description: Minimal inhibitory concentrations (MIC) have been determined by broth microdilution assays (CLSI. Methods for Dilution Antimicrobial Susceptibility Tests for Bacteria That Grow Aerobically; Approved Standard—Tenth Edition. CLSI document M07-A10. Wayne, Pa.: Clinical and Laboratory Standards Institute; 2015.). […]
as §3, §4

bacterial ribosomes = experiment: in-vitro translation assay, bacterial ribosomes; assay type: biochemical
Description: (§5) IC50 values for bacterial, human chimeric, and rabbit reticulocyte ribosomes have been determined by in-vitro translation assays as described previously (Proc. Nat. Ac. Sci USA 2012, 109(27):10984-10989).
as §2

[2] = test system: human mitochondrial ribosomes; experiment: in-vitro translation assay, human mitochondrial (human chimeric) ribosomes; assay type: biochemical
Description: as §5, §2

[3] = test system: human cytosolic ribosomes; experiment: in-vitro translation assay, human cytosolic ribosomes; assay type: biochemical
Description: as §5, §2

[4] = test system: AG212, Escherichia coli ATCC25922; experiment: MIC reference strain AG212; assay type: cell-based; conditions: for MIC: Escherichia coli, ATCC25922, read-out: MIC AG212 E. coli
Description: as §1
(§6) Table 4 and 5 show the antibacterial activity of the compounds of the invention against bacterial reference strains (table 4) and against representative clinical isolates (table 5).
(§7) Legend to Tables: GEN, gentamicin; AMK, amikacin; PLZ, plazomicin; APR, apramycin; AG212, Escherichia coli ATCC25922; AG215, Klebsiella pneumonia; AG220, Pseudomonas aeruginosa ATCC27853; AG225, Acinetobacter baumannii pittii; AG290, Enterobacter cloacae; […], Mycobacterium smegmatis. MICs for AG192 have been determined in the presence of 0.5 μg/mL of ampicillin in the medium to mimic the synergistic effect of aminoglycoside and β-lactam antibiotics combination therapy in the treatment of Enterococcus infections in humans.

[5] = test system: AG215, Klebsiella pneumonia; experiment: MIC reference strain AG215; assay type: cell-based; conditions: for MIC: Klebsiella pneumoniae, read-out: MIC AG215 K. pneumonia
Description: as §1, §6, §7

[6] = test system: AG290, Enterobacter cloacae; experiment: MIC reference strain AG290; assay type: cell-based; conditions: for MIC: Enterobacter cloacae, read-out: MIC AG290 E. cloacae
Description: as §1, §6, §7

[7] = test system: AG220, Pseudomonas aeruginosa ATCC27853; experiment: MIC reference strain AG220; assay type: cell-based; conditions: for MIC: Pseudomonas aeruginosa, ATCC27853, read-out: MIC AG220 P. aeruginosa
Description: as §1, §6, §7

[8] = test system: AG225, Acinetobacter baumannii pittii; experiment: MIC reference strain AG225; assay type: cell-based; conditions: for MIC: Acinetobacter baumannii, read-out: MIC AG225 A. baumannii
Description: as §1, §6, §7

[9] = test system: SZ380, Mycobacterium smegmatis; experiment: MIC reference strain SZ380; assay type: cell-based; conditions: Mycolicibacterium smegmatis, read-out: MIC SZ380 M. smegmatis
Description: as §1, §6, §7

ATCC19977 M. abcessus = experiment: MIC reference strain ATCC19977; assay type: cell-based; conditions: for MIC: read-out: MIC ATCC19977 M. abcessus
Description: as §1, §6

AG001 E. coli WT = experiment: Antibacterial activity, clinical isolate AG001; assay type: cell-based; design: unit not given here
Description: as §1, §6

AG173 E. coli AAC(3)-IV = experiment: Antibacterial activity, clinical isolate AG173; assay type: cell-based
Description: as §1, §6

AG038 MRSA = experiment: Antibacterial activity, clinical isolate AG038; assay type: cell-based; design: unit not given here
Description: as §1, §6

AG031 P. aer. APH(3′)-II = experiment: Antibacterial activity, clinical isolate AG031; assay type: cell-based; design: unit not given here
Description: as §1, §6

[10] = test system: Engineered E. coli pH430 WT; experiment: Activity, engineered E. coli pH430 WT; assay type: cell-based; design: unit not given here; conditions: wild type
Description: as §1

[11] = test system: Engineered E. coli pH424 armA; experiment: Activity against G1405-methylated 16S-rRNA, E. coli pH424 armA; assay type: cell-based
Description: as §1

[12] = test system: E. coli AG153 AAC(3)-II APH(3′)-II rmtB; experiment: Activity against G1405-methylated 16S-rRNA, clinical isolate AG153; assay type: cell-based; design: unit not given here
Description: as §1

[13] = test system: K. pneum. AG269 AAC(3)-II AAC(6′)-I rmtB; experiment: Activity against G1405-methylated 16S-rRNA, clinical isolate AG269; assay type: cell-based
Description: as §1

[14] = test system: Enterob. AG302 AAC(3)-II AAC(6′)-I rmtC; experiment: Activity against G1405-methylated 16S-rRNA, clinical isolate AG302; assay type: cell-based
Description: as §1

[15] = test system: A baum. AG227 APH(3′)-I armA; experiment: Activity against G1405-methylated 16S-rRNA, clinical isolate AG227; assay type: cell-based
Description: as §1

AG055 E. coli WT = experiment: Antibacterial activity, clinical isolate AG055; assay type: cell-based; design: unit not given here
Description: as §1, §6

AG003 E. coli AAC(3)-II = experiment: Antibacterial activity, clinical isolate AG003; assay type: cell-based; design: unit not given here
Description: as §1, §6

[16] = test system: AG039 MRSA AAC(6′)-I ANT(4′)-I; experiment: Antibacterial activity, clinical isolate AG039; assay type: cell-based
Description: as §1, §6

[17] = test system: AG042 MRSA AAC(6′)-I ANT(4′)-I APH(2′); experiment: Antibacterial activity, clinical isolate AG042; assay type: cell-based; design: unit not given here
Description: as §1, §6

AG032 P. aer. APH(3′)-II = experiment: Antibacterial activity, clinical isolate AG032; assay type: cell-based; design: unit not given here
Description: as §1, §6

[18] = test system: AG033 P. aer. APH(3′)-II AAC(6′)-I; experiment: Antibacterial activity, clinical isolate AG033; assay type: cell-based; design: unit not given here
Description: as §1, §6

[19] = test system: Engineered E. coli pH425 rmtB; experiment: Activity against G1405-methylated 16S-rRNA, E. coli pH425 rmtB; assay type: cell-based
Description: as §1

[20] = test system: Engineered E. coli pH426 rmtC; experiment: Activity against G1405-methylated 16S-rRNA, E. coli pH426 rmtC; assay type: cell-based
Description: as §1

[21] = test system: Engineered E. coli pH427 rmtF; experiment: Activity against G1405-methylated 16S-rRNA, E. coli pH427 rmtF; assay type: cell-based
Description: as §1

| Compound | MIC [1] [µg/mL] | MIC (isolates carrying apmA) [µg/mL] | IC50 (bacterial ribosomes) [nM] | IC50 [2] [µM] | IC50 [3] [µM] | MIC [4] [µg/mL] | MIC [5] [µg/mL] | MIC [6] [µg/mL] | MIC [7] [µg/mL] | MIC [8] [µg/mL] | MIC [9] [µg/mL] | MIC (ATCC19977 M. abcessus) [µg/mL] | Antibacterial activity AG001 E. coli WT (AG001 E. coli WT) | Antibacterial activity AG038 MRSA (AG038 MRSA) | Activity E. coli pH430 WT [10] | Activity E. coli pH424 armA [11] | Activity E. coli AG153 AAC(3)-II APH(3′)-II rmtB [12] | Activity K. pneum. AG269 AAC(3)-II AAC(6′)-I rmtB [13] | Activity Enterob. AG302 AAC(3)-II AAC(6′)-I rmtC [14] | Activity A baum. AG227 APH(3′)-I armA [15] | further results |
| --- | --- | --- | --- | --- | --- | --- | --- | --- | --- | --- | --- | --- | --- | --- | --- | --- | --- | --- | --- | --- | --- |
| CN[C@H]1C(O)C2O[C@H](O[C@@H]3C(N)C[C@@H](N)[C@@H](O)[C@H]3OCCCN)C(N)C[C@@H]2O[C@@H]1O[C@H]1OC(CO)[C@@H](N)[C@H](O)C1O (stereo partly shown) [DC213] | 64 (≈ 107 µM) | 64 to 128 (≈ 107 to 215 µM) | 210 | 327 | 210 | 4 to 8 | 2 | 4 to 8 | 8 | 8 | 0.25 | 1 (≈ 1.68 µM) | 16 | 4 | 4 | 4 | 32 | 4-8 | 4-8 | 4-8 | MIC (WT clinical isolates): 4 µg/mL (≈ 6.7 µM); Antibacterial activity AG173 E. coli AAC(3)-IV (AG173 E. coli AAC(3)-IV): 128; Antibacterial activity AG031 P. aer. APH(3′)-II (AG031 P. aer. APH(3′)-II): 16-32 |
| gentamicin [reference compound] |  |  |  |  |  |  |  |  |  |  |  |  | 1 | 0.25-0.5 | 0.25 | >128 | >256 | >256 | >256 | >256 | MIC AG212 E. coli ([4]; reference strain ATCC25922): 0.5 µg/mL; MIC AG215 K. pneumonia ([5]; reference strain): 0.25 µg/mL; MIC AG290 E. cloacae ([6]; reference strain): 0.25 µg/mL; MIC AG220 P. aeruginosa ([7]; reference strain ATCC27853): 0.5 to 1 µg/mL; MIC AG225 A. baumannii ([8]; reference strain): 0.5 to 1 µg/mL; MIC ATCC19977 M. abcessus (ATCC19977 M. abcessus; reference strain): 2 to 4 µg/mL; Antibacterial activity AG055 E. coli WT (AG055 E. coli WT): 0.5; Antibacterial activity AG003 E. coli AAC(3)-II (AG003 E. coli AAC(3)-II): 32-64; Antibacterial activity AG039 MRSA AAC(6′)-I ANT(4′)-I [16]: 0.25-0.5; Antibacterial activity AG042 MRSA AAC(6′)-I ANT(4′)-I APH(2′) [17]: 64; Antibacterial activity AG031 P. aer. APH(3′)-II (AG031 P. aer. APH(3′)-II): 0.5; Antibacterial activity AG032 P. aer. APH(3′)-II (AG032 P. aer. APH(3′)-II): 0.5; Antibacterial activity AG033 P. aer. APH(3′)-II AAC(6′)-I [18]: 16; Activity E. coli pH425 rmtB [19]: >128; Activity E. coli pH426 rmtC [20]: >128; Activity E. coli pH427 rmtF [21]: >128 |
| CNC1C(O)C2O[C@H](O[C@@H]3C(N)C[C@@H](N)[C@@H](O)[C@H]3OCCCO)C(N)C[C@@H]2O[C@@H]1O[C@H]1OC(CO)[C@@H](N)[C@H](O)C1O (stereo partly shown) [DC207] | > 128 | > 128 | 600 | > 1000 | > 1000 | 16 | 8 | 16 | 64 | 32 | 1 | 8 (≈ 13.4 µM) | 16 | 32 | 8 | 4 | 8 | 8 | 8-16 | 16-32 | Antibacterial activity AG173 E. coli AAC(3)-IV (AG173 E. coli AAC(3)-IV): >128; Antibacterial activity AG031 P. aer. APH(3′)-II (AG031 P. aer. APH(3′)-II): 128 |
| CN[C@H]1C(O)C2O[C@H](O[C@@H]3C(N)C[C@@H](NC(=O)C(O)CCN)[C@@H](O)[C@H]3O)C(N)C[C@@H]2O[C@@H]1O[C@H]1OC(CO)[C@@H](N)[C@H](O)C1O (stereo partly shown) [DC191] | 4 to 8 (≈ 6.24 to 12.5 µM) | 8 (≈ 12.5 µM) | 200 | 98 | 87 | 2 | 1 to 2 | 2 | 4 | 8 | 0.5 | 2 (≈ 3.12 µM) | 8 | 4 | 2-4 | 2 | 4 | 2 | 2-4 | 4 | MIC (WT clinical isolates): 2 to 4 µg/mL (≈ 3.12 to 6.24 µM); Antibacterial activity AG173 E. coli AAC(3)-IV (AG173 E. coli AAC(3)-IV): 4-8 |
